From USRE47193E1, “Selectively substituted quinoline compounds” (EISAI R&D MANAGEMENT CO., LTD., priority 2013, dated 2019)

Key:
Mouse Splenocytes = test: Mouse spleen cell-based assay (R848, IL-6 ELISA); conditions: Mus musculus, Splenocyte, BALB/c spleen cells, 370 nM R848
Experimental: Mouse Spleen cell-based assay. Spleens were harvested from female BALB/c mice (Jackson Labs, Bar Harbor, Me.) euthanized by CO2. A single cell suspension was obtained by passing spleens through a 40 μm an nylon cell strainer. Cells were washed twice with 50 ml PBS (Mediatech, Inc., Manassas, Va.) and red blood cells were lysed in 5 ml RBC Lysis buffer (eBioscience, Inc., San Diego, Calif.) for 5 minutes at room temperature. Cells were washed twice more in PBS and finally resuspended in supplemented RPMI-1640 at 2.5×10^6 cells/ml. Cells were plated at 100 μl/well (2.5×10^5 cells/well) in 96-well tissue culture treated plates (Falcon). Serial dilutions of compounds solubilized in 100% DMSO were added in triplicate to cells to yield a final concentration of 0.1% DMSO. Cells were incubated with compound for 30 minutes at 37° C., 5% CO2 before adding 100 μl/well of 740 nM R848 (Resiquimod; GLSynthesis, Worcester, Mass.) in complete media for a final concentration of 370 nM R848. Cells were incubated for 20 hours at 37° C., 5% CO2. Culture supernatants were collected, and levels of IL-6 were assessed by standard ELISA procedure according to the manufacturer's recommended protocol (BD Biosciences, Inc., San Diego, Calif.).

mouse TLR7 = molecular target: T1, mouse TLR7 (Mus musculus, UniProt P58681); test: Short-term in vivo (STIV) assay: oral dosing, R848 s.c., plasma IL-6; design: female BALB/c mice (Jackson Labs, Bar Harbor, Me.) were dosed by oral gavage; tissue Jackson Labs; host or cells: living female BALB/c mice; plasma IL-6 after s.c. R848; conditions: for short-term in vivo suppression of the TLR7 pathway (plasma IL-6): 33, 100 or 300 mg/kg oral, 6, 13 or 24 hours, FIG. 1
T1 sequence (P58681 27-1050): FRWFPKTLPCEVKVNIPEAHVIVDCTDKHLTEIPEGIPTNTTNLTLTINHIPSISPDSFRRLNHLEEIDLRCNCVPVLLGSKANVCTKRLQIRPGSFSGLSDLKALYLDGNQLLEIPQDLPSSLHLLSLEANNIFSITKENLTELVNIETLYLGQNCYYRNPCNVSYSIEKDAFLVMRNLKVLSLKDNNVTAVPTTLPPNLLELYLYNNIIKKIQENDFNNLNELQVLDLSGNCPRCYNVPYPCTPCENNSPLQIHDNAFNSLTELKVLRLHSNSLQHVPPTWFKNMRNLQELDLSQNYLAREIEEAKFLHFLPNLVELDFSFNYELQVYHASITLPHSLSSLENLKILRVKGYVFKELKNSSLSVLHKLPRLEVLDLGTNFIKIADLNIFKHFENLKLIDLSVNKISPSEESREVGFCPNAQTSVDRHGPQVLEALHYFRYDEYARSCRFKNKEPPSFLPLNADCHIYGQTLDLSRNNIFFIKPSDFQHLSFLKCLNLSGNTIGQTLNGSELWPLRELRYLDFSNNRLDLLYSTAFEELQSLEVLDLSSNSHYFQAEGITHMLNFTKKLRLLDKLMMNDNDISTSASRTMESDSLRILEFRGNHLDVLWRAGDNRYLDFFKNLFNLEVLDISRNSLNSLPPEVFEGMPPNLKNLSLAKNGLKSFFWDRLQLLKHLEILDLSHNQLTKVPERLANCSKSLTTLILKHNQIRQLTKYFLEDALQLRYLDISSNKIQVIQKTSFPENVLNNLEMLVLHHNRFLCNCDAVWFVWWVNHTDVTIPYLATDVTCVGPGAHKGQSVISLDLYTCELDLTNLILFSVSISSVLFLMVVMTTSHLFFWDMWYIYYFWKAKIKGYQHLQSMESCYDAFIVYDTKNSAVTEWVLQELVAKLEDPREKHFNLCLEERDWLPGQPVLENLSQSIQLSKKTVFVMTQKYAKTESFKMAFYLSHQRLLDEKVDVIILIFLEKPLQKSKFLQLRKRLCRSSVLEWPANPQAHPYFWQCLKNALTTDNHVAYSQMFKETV
How it was run: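 Female BALB/c mice (6–8 weeks) dosed orally with compound in 0.5% aqueous methyl-cellulose at 33, 100 or 300 mg/kg; at various times afterwards given 15 ug R848 s.c. to stimulate TLR7. Plasma IL-6 measured by ELISA to gauge potency and duration of action.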

Structure (SMILES) | IC50 (Mouse Splenocytes) [nM] | % Suppression vs. Vehicle (mouse TLR7; 6 h, 33 mg/kg) [%] | % Suppression vs. Vehicle (mouse TLR7; 6 h, 100 mg/kg) [%] | % Suppression vs. Vehicle (mouse TLR7; 6 h, 300 mg/kg) [%] | % Suppression vs. Vehicle (mouse TLR7; 19 h, 33 mg/kg) [%] | % Suppression vs. Vehicle (mouse TLR7; 19 h, 100 mg/kg) [%] | % Suppression vs. Vehicle (mouse TLR7; 19 h, 300 mg/kg) [%] | % Suppression vs. Vehicle (mouse TLR7; 3 h, 33 mg/kg) [%] | % Suppression vs. Vehicle (mouse TLR7; 3 h, 100 mg/kg) [%] | % Suppression vs. Vehicle (mouse TLR7; 3 h, 300 mg/kg) [%] | % Suppression vs. Vehicle (mouse TLR7; 19 h, 1.22 mg/kg) [%] | % Suppression vs. Vehicle (mouse TLR7; 19 h, 3.67 mg/kg) [%] | % Suppression vs. Vehicle (mouse TLR7; 19 h, 11 mg/kg) [%] | % Suppression vs. Vehicle (mouse TLR7; 24 h, 33 mg/kg) [%] | % Suppression vs. Vehicle (mouse TLR7; 24 h, 100 mg/kg) [%] | % Suppression vs. Vehicle (mouse TLR7; 24 h, 300 mg/kg) [%] | short-term in vivo suppression of the TLR7 pathway (plasma IL-6) (mouse TLR7) | % Suppression vs. Vehicle (mouse TLR7; 13 h, 100 mg/kg) [%] | duration of full suppression of the R848/TLR7/IL-6 pathway in vivo (mouse TLR7; single oral dose 300 mg/kg)
CC1CNC(=O)CN1C[C@H]1CN(c2ccc(C#N)c3ncccc23)C[C@@H](C)O1 (stereo partly shown) [ER-887722] | 463 |  |  |  |  |  |  |  |  |  |  |  |  |  |  |  |  |  | 
C[C@@H]1CN(c2ccc(C#N)c3ncccc23)C[C@H](CN2CCN(C)CC2)O1 [ER-887723] | 47 | 100 | 100 | 100 | 77 | 97 | 100 |  |  |  |  |  |  |  |  |  |  |  | 
CCCN1CCN(C[C@H]2CN(c3ccc(C#N)c4ncccc34)C[C@@H](C)O2)CC1 [ER-887724] | 70 | 99 | 99 | 99 | 83 | 91 | 99 | 99 | 99 | 99 |  |  |  |  |  |  |  |  | 
CC1CN(c2ccc(C#N)c3ncccc23)CC(CN2CCC(N(C)C)CC2)O1 (stereo not shown) [ER-887725] |  | 99 | 99 | 99 | 90 | 91 | 99 | 99 | 99 | 99 |  |  |  |  |  |  |  |  | 
C[C@@H]1CN(c2ccc(C#N)c3ncccc23)C[C@H](CN2CCC(N3CCCCC3)CC2)O1 [ER-887927, 5-((2S,6R)-2-([1,4′-bipiperidin]-1′-ylmethyl)-6-methylmorpholino)quinoline-8-carbonitrile] | 26 | 100 | 100 | 100 | 98 | 100 | 100 |  |  |  | 56 | 70 | 94 |  |  |  |  |  | 
CC(=O)NC1CCN(CC2CN(c3ccc(C#N)c4ncccc34)CC(C)O2)CC1 (stereo not shown) [ER-888288] | 135 | 78 | 99 | 97 | 50 | 53 |  | 100 | 98 |  |  |  |  | 14 | 0 | 55 |  |  | 
C[C@@H]1CN(c2ccc(C#N)c3ncccc23)C[C@H](C(=O)NC2CCN(C)CC2)O1 [ER-899464, (2R,6R)-4-(8-cyanoquinolin-5-yl)-6-methyl-N-(1-methylpiperidin-4-yl)morpholine-2-carboxamide] |  |  | 99 |  |  |  |  |  |  |  |  |  |  |  |  |  | suppression of the TLR7 pathway | 96 | 
C[C@@H]1CN(c2ccc(C#N)c3ncccc23)C[C@H](C(=O)N[C@H]2CNC[C@H]2F)O1.Cl [ER-899742, (2R,6R)-4-(8-cyanoquinolin-5-yl)-N-[(3S,4R)-4-fluoropyrrolidin-3-yl]-6-methylmorpholine-2-carboxamide hydrochloride] |  |  | 100 |  |  |  |  |  |  |  |  |  |  |  |  |  | suppression of the TLR7 pathway | 61 | at least 24 hours
